Assay results as given in US11026943B2, “Aminoquinoline derivatives and uses thereof” (UNIVERSITY OF DELHI, priority 2012, dated 2021).

test: Solubility (solvent listed in compound tables); assay type: physicochemical; settings: solvent named, Table 3

Compound	SOLUBILITY
Cc1cc(N2CCN(c3ccnc4cc(Cl)ccc34)CC2)nc(Cl)n1 [ATH 237]	DMSO
Cc1cc(N2CCN(c3ccnc4cc(Cl)ccc34)CC2)nc(N2CCOCC2)n1 [ATH 239]	DMSO
Cc1cc(N2CCN(c3ccnc4cc(Cl)ccc34)CC2)nc(N2CCCCC2)n1 [ATH 240]	DMSO
Cc1cc(N2CCN(c3ccnc4cc(Cl)ccc34)CC2)nc(NC2CCCCC2)n1 [ATH 241]	DMSO
COc1cc(Nc2cc(C)nc(N3CCN(c4ccnc5cc(Cl)ccc45)CC3)n2)cc(OC)c1 [ATH 244]	DMSO
COc1ccc(Nc2cc(C)nc(N3CCN(c4ccnc5cc(Cl)ccc45)CC3)n2)cc1 [ATH 245]	DMSO
Cc1cc(Nc2ccc(F)cc2)nc(N2CCN(c3ccnc4cc(Cl)ccc34)CC2)n1 [ATH 247]	DMSO
Clc1ccc2c(N3CCN(c4ccnc(N5CCCC5)n4)CC3)ccnc2c1 [ATH 252]	DMSO
OCCNc1nccc(N2CCN(c3ccnc4cc(Cl)ccc34)CC2)n1 [ATH 254]	DMSO
OCCCNc1nccc(N2CCN(c3ccnc4cc(Cl)ccc34)CC2)n1 [ATH 255]	DMSO
Cc1cc(N2CCN(c3ccnc4cc(Cl)ccc34)CC2)nc(N2CCCC2)n1 [ATH 256]	DMSO
Clc1ccc2c(NCCNc3nc(Nc4ccccc4)nc(Nc4ccccc4)n3)ccnc2c1 [SM 129]	DMSO
COc1cc(Nc2nc(NC(C)CNc3ccnc4cc(Cl)ccc34)nc(N3CCOCC3)n2)cc(OC)c1 (stereo not shown) [SM 130]	DMSO
Clc1ccc2c(NCCNc3nc(Cl)nc(NCCNc4ccnc5cc(Cl)ccc45)n3)ccnc2c1 [SM 133]	DMSO
Clc1ccc2c(NCCNc3nc(Cl)nc(Nc4ccccc4)n3)ccnc2c1 [SM 136]	DMSO
CCN(CC)c1nc(Cl)nc(NCCNc2ccnc3cc(Cl)ccc23)n1 [SM 137]	DMSO

Compound	SOLUBILITY
Clc1ccc2c(NCCNc3nc(N4CCOCC4)nc(N4CCOCC4)n3)ccnc2c1 [SM 142]	DMSO
CC(CNc1ccnc2cc(Cl)ccc12)Nc1nc(N2CCOCC2)nc(N2CCOCC2)n1 (stereo not shown) [SM 143]	DMSO
Cc1ccccc1Nc1nc(NCCNc2ccnc3cc(Cl)ccc23)nc(Nc2ccccc2C)n1 [SM 144]	DMSO
Cc1ccccc1Nc1nc(Nc2ccccc2C)nc(NC(C)CNc2ccnc3cc(Cl)ccc23)n1 (stereo not shown) [SM 146]	DMSO
COc1ccc(Nc2nc(NCCNc3ccnc4cc(Cl)ccc34)nc(N3CCOCC3)n2)cc1 [SM 332]	DMSO
Fc1ccc(Nc2nc(NCCNc3ccnc4cc(Cl)ccc34)nc(N3CCOCC3)n2)cc1 [SM 334]	DMSO
CCc1ccc(Nc2nc(NCCNc3ccnc4cc(Cl)ccc34)nc(N3CCOCC3)n2)cc1 [SM 335]	DMSO
Clc1ccc2c(NCCNc3nc(Nc4ccccc4)nc(N4CCOCC4)n3)ccnc2c1 [SM 336]	DMSO
COc1ccc(Nc2nc(NCCCNc3ccnc4cc(Cl)ccc34)nc(N3CCOCC3)n2)cc1 [SM 337]	DMSO
Fc1ccc(Nc2nc(NCCCNc3ccnc4cc(Cl)ccc34)nc(N3CCOCC3)n2)cc1 [SM 339]	DMSO
CCc1ccc(Nc2nc(NCCCNc3ccnc4cc(Cl)ccc34)nc(N3CCOCC3)n2)cc1 [SM 340]	DMSO
Clc1ccc2c(NCCCNc3nc(Nc4ccccc4)nc(N4CCOCC4)n3)ccnc2c1 [SM 341]	DMSO
OCCNc1nc(NCCCCNc2ccnc3cc(Cl)ccc23)nc(N2CCOCC2)n1 [SM 345]	DMSO
OCCCNc1nc(NCCCCNc2ccnc3cc(Cl)ccc23)nc(N2CCOCC2)n1 [SM 349]	DMSO
OCCCNc1nc(NCCNc2ccnc3cc(Cl)ccc23)nc(N2CCOCC2)n1 [SM 350]	DMSO

same assay, conditions: solvent named, Table 4

Compound	SOLUBILITY
Cc1ccc(Nc2ccnc(NCCNc3ccnc4cc(Cl)ccc34)n2)cc1 [DKG805]	DMSO
Cc1ccc(Nc2ccnc(NCCCNc3ccnc4cc(Cl)ccc34)n2)cc1 [DKG806]	DMSO
Cc1ccc(Nc2ccnc(NCCCCNc3ccnc4cc(Cl)ccc34)n2)cc1 [DKG807]	DMSO
Clc1ccc2c(NCCNc3nccc(Nc4ccc(Br)cc4)n3)ccnc2c1 [DKG809]	DMSO
Clc1ccc2c(NCCCNc3nccc(Nc4ccc(Br)cc4)n3)ccnc2c1 [DKG810]	DMSO
Clc1ccc2c(NCCCCNc3nccc(Nc4ccc(Br)cc4)n3)ccnc2c1 [DKG811]	DMSO
Clc1ccc(Nc2ccnc(NCCNc3ccnc4cc(Cl)ccc34)n2)cc1 [DKG813]	DMSO
Clc1ccc(Nc2ccnc(NCCCNc3ccnc4cc(Cl)ccc34)n2)cc1 [DKG814]	DMSO
Clc1ccc(Nc2ccnc(NCCCCNc3ccnc4cc(Cl)ccc34)n2)cc1 [DKG815]	DMSO
Fc1ccc(Nc2ccnc(NCCNc3ccnc4cc(Cl)ccc34)n2)cc1 [DKG817]	DMSO
Fc1ccc(Nc2ccnc(NCCCNc3ccnc4cc(Cl)ccc34)n2)cc1 [DKG818]	DMSO
Fc1ccc(Nc2ccnc(NCCCCNc3ccnc4cc(Cl)ccc34)n2)cc1 [DKG819]	DMSO
Clc1ccc2c(NCCNc3nccc(Nc4ccccc4)n3)ccnc2c1 [DKG821]	DMSO
Clc1ccc2c(NCCCNc3nccc(Nc4ccccc4)n3)ccnc2c1 [DKG822]	DMSO
Clc1ccc2c(NCCCCNc3nccc(Nc4ccccc4)n3)ccnc2c1 [DKG823]	DMSO
COc1ccc(Nc2ccnc(NCCNc3ccnc4cc(Cl)ccc34)n2)cc1 [DKG825]	DMSO
COc1ccc(Nc2ccnc(NCCCNc3ccnc4cc(Cl)ccc34)n2)cc1 [DKG826]	DMSO

Compound	SOLUBILITY
COc1ccc(Nc2ccnc(NCCCCNc3ccnc4cc(Cl)ccc34)n2)cc1 [DKG827]	DMSO
COc1cc(Nc2ccnc(NCCCNc3ccnc4cc(Cl)ccc34)n2)cc(OC)c1 [DKG830]	DMSO
COc1cc(Nc2ccnc(NCCCCNc3ccnc4cc(Cl)ccc34)n2)cc(OC)c1 [DKG831]	DMSO
Cc1cc(Nc2ccccc2)nc(NCCNc2ccnc3cc(Cl)ccc23)n1 [DKG833]	DMSO
Cc1cc(Nc2ccccc2)nc(NCCCNc2ccnc3cc(Cl)ccc23)n1 [DKG834]	DMSO
COc1ccc(Nc2cc(C)nc(NCCCNc3ccnc4cc(Cl)ccc34)n2)cc1 [DKG838]	DMSO
COc1ccc(Nc2cc(C)nc(NCCCCNc3ccnc4cc(Cl)ccc34)n2)cc1 [DKG839]	DMSO
Cc1cc(Nc2ccc(Cl)cc2)nc(NCCCNc2ccnc3cc(Cl)ccc23)n1 [DKG846]	DMSO
Cc1cc(Nc2ccc(Cl)cc2)nc(NCCCCNc2ccnc3cc(Cl)ccc23)n1 [DKG847]	DMSO
Cc1cc(Nc2ccc(Br)cc2)nc(NCCCNc2ccnc3cc(Cl)ccc23)n1 [DKG850]	DMSO
Cc1cc(Nc2ccc(Br)cc2)nc(NCCCCNc2ccnc3cc(Cl)ccc23)n1 [DKG851]	DMSO
Cc1cc(Nc2ccc(F)cc2)nc(NCCCNc2ccnc3cc(Cl)ccc23)n1 [DKG854]	DMSO
Cc1cc(Nc2ccc(F)cc2)nc(NCCCCNc2ccnc3cc(Cl)ccc23)n1 [DKG855]	DMSO
Cc1ccc(Nc2cc(C)nc(NCCNc3ccnc4cc(Cl)ccc34)n2)cc1 [DKG857]	DMSO
Cc1ccc(Nc2cc(C)nc(NCCCNc3ccnc4cc(Cl)ccc34)n2)cc1 [DKG858]	DMSO
Cc1ccc(Nc2cc(C)nc(NCCCCNc3ccnc4cc(Cl)ccc34)n2)cc1 [DKG859]	DMSO

same assay, conditions: solvents listed for the compound

Compound	SOLUBILITY
OCCCNc1nccc(NCCCNc2ccnc3cc(Cl)ccc23)n1 [MT1-121]	MeOH, DMSO
OCCCCNc1nccc(NCCCNc2ccnc3cc(Cl)ccc23)n1 [MT1-122]	MeOH, DMSO
OCCNc1nccc(NCCCNc2ccnc3cc(Cl)ccc23)n1 [MT1-127]	MeOH, DMSO
OCCCCCNc1nccc(NCCCNc2ccnc3cc(Cl)ccc23)n1 [MT1-128]	MeOH, DMSO
OCCCCCCNc1nccc(NCCCNc2ccnc3cc(Cl)ccc23)n1 [MT1-132]	MeOH, DMSO
Cc1cc(NCCCNc2ccnc3cc(Cl)ccc23)nc(NCCO)n1 [MT1-145]	MeOH, DMSO
Cc1cc(NCCCNc2ccnc3cc(Cl)ccc23)nc(NCCCO)n1 [MT1-146]	MeOH, DMSO
Cc1cc(NCCCNc2ccnc3cc(Cl)ccc23)nc(NCCCCO)n1 [MT1-147]	MeOH, DMSO
Cc1cc(NCCCNc2ccnc3cc(Cl)ccc23)nc(NCCCCCO)n1 [MT1-148]	MeOH, DMSO
OCCNc1nccc(NCCCCNc2ccnc3cc(Cl)ccc23)n1 [MT1-156]	MeOH, DMSO
OCCCNc1nccc(NCCCCNc2ccnc3cc(Cl)ccc23)n1 [MT1-157]	MeOH, DMSO
OCCCCNc1nccc(NCCCCNc2ccnc3cc(Cl)ccc23)n1 [MT1-158]	MeOH, DMSO
OCCCCCNc1nccc(NCCCCNc2ccnc3cc(Cl)ccc23)n1 [MT1-162]	MeOH, DMSO
OCCCCCCNc1nccc(NCCCCNc2ccnc3cc(Cl)ccc23)n1 [MT1-163]	MeOH, DMSO
Cc1cc(NCCNc2ccnc3cc(Cl)ccc23)nc(NCCO)n1 [MT1-185]	MeOH, DMSO
Cc1cc(NCCNc2ccnc3cc(Cl)ccc23)nc(NCCCO)n1 [MT1-186]	MeOH, DMSO
Cc1cc(NCCNc2ccnc3cc(Cl)ccc23)nc(NCCCCO)n1 [MT1-189]	MeOH, DMSO
Cc1cc(NCCNc2ccnc3cc(Cl)ccc23)nc(NCCCCCO)n1 [MT1-190]	MeOH, DMSO
Cc1cc(NCCNc2ccnc3cc(Cl)ccc23)nc(NCCCCCCO)n1 [MT1-191]	MeOH, DMSO
Cc1cc(NCCCCNc2ccnc3cc(Cl)ccc23)nc(NCCO)n1 [MT1-192]	MeOH, DMSO
Cc1cc(NCCCCNc2ccnc3cc(Cl)ccc23)nc(NCCCO)n1 [MT1-193]	MeOH, DMSO
Cc1cc(NCCCCNc2ccnc3cc(Cl)ccc23)nc(NCCCCO)n1 [MT1-194]	MeOH, DMSO
Cc1cc(NCCCCNc2ccnc3cc(Cl)ccc23)nc(NCCCCCO)n1 [MT1-195]	MeOH, DMSO
Cc1cc(NCCCCNc2ccnc3cc(Cl)ccc23)nc(NCCCCCCO)n1 [MT1-196]	MeOH, DMSO
